The target of one assay is T1, glucocorticoid receptor (Homo sapiens, UniProt P04150).
T1 construct: a partially purified full length glucocorticoid receptor
T1 sequence (P04150 1-777): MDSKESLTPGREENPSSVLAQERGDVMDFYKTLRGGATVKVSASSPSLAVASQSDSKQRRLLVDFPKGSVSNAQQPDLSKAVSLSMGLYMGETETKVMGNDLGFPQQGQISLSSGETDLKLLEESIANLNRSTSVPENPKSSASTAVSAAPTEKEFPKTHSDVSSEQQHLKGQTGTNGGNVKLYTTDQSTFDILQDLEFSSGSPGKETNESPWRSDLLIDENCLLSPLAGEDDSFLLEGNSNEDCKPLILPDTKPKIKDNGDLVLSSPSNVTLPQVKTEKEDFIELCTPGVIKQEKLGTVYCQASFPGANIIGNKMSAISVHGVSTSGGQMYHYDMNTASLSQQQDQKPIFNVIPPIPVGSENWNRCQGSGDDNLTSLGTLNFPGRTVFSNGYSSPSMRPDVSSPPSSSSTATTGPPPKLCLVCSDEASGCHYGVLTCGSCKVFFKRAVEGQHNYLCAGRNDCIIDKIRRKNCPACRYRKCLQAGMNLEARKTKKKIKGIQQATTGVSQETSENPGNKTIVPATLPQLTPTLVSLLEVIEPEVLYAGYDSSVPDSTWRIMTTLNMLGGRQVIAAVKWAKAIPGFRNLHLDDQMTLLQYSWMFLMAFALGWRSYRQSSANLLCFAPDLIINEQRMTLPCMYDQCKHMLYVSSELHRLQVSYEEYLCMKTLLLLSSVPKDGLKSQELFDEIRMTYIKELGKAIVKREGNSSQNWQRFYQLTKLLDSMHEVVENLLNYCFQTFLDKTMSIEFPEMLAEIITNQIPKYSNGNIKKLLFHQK
The assay is described as follows: Glucocorticoid receptor binding assay (fluorescence polarisation). Particulars: competition with Alexa 555 fluorescently-labelled dexamethasone derivative, full length glucocorticoid receptor; read-out: glucocorticoid binding pIC50 (converted). The method in brief:
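Compounds in DMSO incubated with fluorescent dexamethasone and partially purified full-length GR plus stabilising buffer components, 2 hrs at room temperature in the dark. Displacement read as decrease in fluorescence polarisation; pIC50 estimated from dose-response curves.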

The next assay concerns MMTV promoter. The assay is described as follows: MMTV agonist assay in A549 MMTV cells. The class given is cell-based. Particulars: Homo sapiens, A549, 6 h, >85% = full agonist, >20% and <85% = partial or efficacy selective agonist, read-out: average maximum asymptote in the MMTV agonist assay. From the text: Human lung carcinoma A549 cell line (ECACC No. 86012804) has been stably transfected in house with a plasmid containing a renilla luciferase reporter with an MMTV promoter. Stimulation of the cell line with GR agonists results in intracellular signal transduction and ultimately translocation of GR into the nucleus. This activates the inserted DNA sequence resulting in transcription of the integrated luciferase gene, which is quantified using a light emission. The stably transfected cell line was grown as a monolayer in DMEM supplemented with FCS-HI (10%), Non-essential amino acids (1%), L-Glutamine (2 mM), Pen/Strep (1%) and Geneticin (50 mg/ml).
A 90% confluent T175 flask of A549 MMTV cells was harvested by centrifugation for 5 min at 200 g, resuspended in assay buffer (DMEM supplemented with 10% FCS 2×HI, 2 mM Glutamax, Non essential amino acids and 25 mM HEPES) and diluted to 0.1×10^6/ml. 70 μl of cell solution was dispensed to each well of white Nunc 384-well plates, containing compound at the required concentration. Plates were incubated for 6 h at 37° C., 95% humidity, 5% CO2. Plates were equilibrated to room temperature for 1 h prior to the addition of 10 μl of Renilla substrate to each well of assay plates. The plates were covered to protect the reagents from light, and then incubated at room temperature for approximately 15 mins before reading them on a Viewlux. Dose response curves were constructed from which pEC50 and maximum asymptote values were estimated.

Each structure is given as a SMILES string.

With `Nc1c(C(=O)NCC(O)(CNC(=O)c2c(F)cccc2C(F)(F)F)C(F)(F)F)cnn1-c1ccc(F)cc1` (racemic) [Example 19 (racemic), 5-amino-1-(4-fluorophenyl)-N-{3,3,3-trifluoro-2-[({[2-fluoro-6-(trifluoromethyl)phenyl]carbonyl}amino)methyl]-2-hydroxypropyl}-1H-pyrazole-4-carboxamide], the IC50 at glucocorticoid receptor was at most 316 nM. The Emax with MMTV promoter fell in the range of 20 to 85%.

As to `CN(CC(O)(CNC(=O)c1cnn(-c2ccc(F)cc2)c1N)C(F)(F)F)C(=O)c1c(F)cccc1C(F)(F)F` (racemic) [Example 21 (racemic), 5-amino-1-(4-fluorophenyl)-N-(3,3,3-trifluoro-2-{[{[2-fluoro-6-(trifluoromethyl)phenyl]carbonyl}(methyl)amino]methyl}-2-hydroxypropyl)-1H-pyrazole-4-carboxamide], the IC50 at glucocorticoid receptor is at most 316 nM. In the assay on MMTV promoter, the Emax is above 85%.

`CN(CC(O)(CNC(=O)c1cnn(-c2ccc(F)cc2)c1N)C(F)(F)F)C(=O)c1c(C(F)(F)F)cccc1C(F)(F)F` (racemic) [Example 22 (racemic), 5-amino-N-(2-{[{[2,6-bis(trifluoromethyl)phenyl]carbonyl}(methyl)amino]methyl}-3,3,3-trifluoro-2-hydroxypropyl)-1-(4-fluorophenyl)-1H-pyrazole-4-carboxamide]: the IC50 at glucocorticoid receptor is at most 316 nM. The Emax in the assay on MMTV promoter was above 85%.

As for `CCN(CC(O)(CNC(=O)c1cnn(-c2ccc(F)cc2)c1N)C(F)(F)F)C(=O)c1c(F)cccc1C(F)(F)F` (racemic) [Example 23 (racemic), 5-amino-N-{2-[(ethyl{[2-fluoro-6-(trifluoromethyl)phenyl]carbonyl}amino)methyl]-3,3,3-trifluoro-2-hydroxypropyl}-1-(4-fluorophenyl)-1H-pyrazole-4-carboxamide], the IC50 at glucocorticoid receptor is at most 316 nM. The Emax in the assay with MMTV promoter was above 85%.

Consider `CCN(CC(O)(CNC(=O)c1cnn(-c2ccc(F)cc2)c1N)C(F)(F)F)C(=O)c1c(Cl)cccc1Br` (racemic) [Example 24 (racemic), 5-amino-N-(2-{[[(2-bromo-6-chlorophenyl)carbonyl](ethyl)amino]methyl}-3,3,3-trifluoro-2-hydroxypropyl)-1-(4-fluorophenyl)-1H-pyrazole-4-carboxamide], for which the IC50 on glucocorticoid receptor was at most 316 nM. Moreover, in the assay with MMTV promoter, the Emax is above 85%.

Turning to `CCN(CC(O)(CNC(=O)c1cnn(-c2ccc(F)cc2)c1N)C(F)(F)F)C(=O)c1c(Cl)cccc1OC(F)F` (racemic) [Example 25 (racemic), 5-amino-N-(2-{[({2-chloro-6-[(difluoromethyl)oxy]phenyl}carbonyl)(ethyl)amino]methyl}-3,3,3-trifluoro-2-hydroxypropyl)-1-(4-fluorophenyl)-1H-pyrazole-4-carboxamide], at glucocorticoid receptor, the IC50 is at most 316 nM. For the same molecule, the Emax in the assay on MMTV promoter was above 85%.

For the molecule `CCN(CC(O)(CNC(=O)c1cnn(-c2ccc(F)cc2)c1N)C(F)(F)F)C(=O)c1c(OC(F)F)cccc1OC(F)F` (racemic) [Example 26 (racemic), 5-amino-N-(2-{[({2,6-bis[(difluoromethyl)oxy]phenyl}carbonyl)(ethyl)amino]methyl}-3,3,3-trifluoro-2-hydroxypropyl)-1-(4-fluorophenyl)-1H-pyrazole-4-carboxamide], the IC50 at glucocorticoid receptor is at most 316 nM. Besides, the Emax in the assay on MMTV promoter is above 85%.

On to `CCN(CC(O)(CNC(=O)c1cnn(-c2ccc(F)cc2)c1N)C(F)(F)F)C(=O)c1c(C(F)(F)F)cccc1C(F)(F)F` (racemic) [Example 27 (racemic), 5-amino-N-(2-{[{[2,6-bis(trifluoromethyl)phenyl]carbonyl}(ethyl)amino]methyl}-3,3,3-trifluoro-2-hydroxypropyl)-1-(4-fluorophenyl)-1H-pyrazole-4-carboxamide], for which the IC50 on glucocorticoid receptor is at most 316 nM. Moreover, in the assay with MMTV promoter, the Emax is above 85%.

With `Nc1c(C(=O)NCC(O)(CN(CCF)C(=O)c2c(Cl)cccc2Cl)C(F)(F)F)cnn1-c1ccc(F)cc1` (racemic) [Example 28 (racemic), 5-amino-N-(2-{[[(2,6-dichlorophenyl)carbonyl](2-fluoroethyl)amino]methyl}-3,3,3-trifluoro-2-hydroxypropyl)-1-(4-fluorophenyl)-1H-pyrazole-4-carboxamide], at glucocorticoid receptor, the IC50 was at most 316 nM. Moreover, in the assay on MMTV promoter, the Emax was above 85%.

In the case of `Nc1c(C(=O)NCC(O)(CN(CCF)C(=O)c2c(Cl)cccc2Br)C(F)(F)F)cnn1-c1ccc(F)cc1` (racemic) [Example 30 (racemic), 5-amino-N-(2-{[[(2-bromo-6-chlorophenyl)carbonyl](2-fluoroethyl)amino]methyl}-3,3,3-trifluoro-2-hydroxypropyl)-1-(4-fluorophenyl)-1H-pyrazole-4-carboxamide], on glucocorticoid receptor, the IC50 is at most 316 nM. For the same molecule, the Emax in the assay on MMTV promoter is above 85%.

On to `Nc1c(C(=O)NCC(O)(CN(CCF)C(=O)c2c(Cl)cccc2OC(F)F)C(F)(F)F)cnn1-c1ccc(F)cc1` (racemic) [Example 31 (racemic), 5-amino-N-(2-{[({2-chloro-6-[(difluoromethyl)oxy]phenyl}carbonyl)(2-fluoroethyl)amino]methyl}-3,3,3-trifluoro-2-hydroxypropyl)-1-(4-fluorophenyl)-1H-pyrazole-4-carboxamide], for which the IC50 on glucocorticoid receptor is at most 316 nM. In addition, in the assay on MMTV promoter, the Emax was above 85%.

As for `CCN(CC(O)(CNC(=O)c1cnn(-c2ccc(F)c(F)c2)c1N)C(F)(F)F)C(=O)c1c(F)cccc1F` (racemic) [Example 33 (racemic), 5-amino-1-(3,4-difluorophenyl)-N-(2-{[[(2,6-difluorophenyl)carbonyl](ethyl)amino]methyl}-3,3,3-trifluoro-2-hydroxypropyl)-1H-pyrazole-4-carboxamide], the IC50 at glucocorticoid receptor is at most 316 nM. Moreover, the Emax in the assay with MMTV promoter was above 85%.

For the molecule `CCN(CC(O)(CNC(=O)c1cnn(-c2ccc(F)cc2F)c1N)C(F)(F)F)C(=O)c1c(F)cccc1F` (racemic) [Example 34 (racemic), 5-amino-1-(2,4-difluorophenyl)-N-(2-{[[(2,6-difluorophenyl)carbonyl](ethyl)amino]methyl}-3,3,3-trifluoro-2-hydroxypropyl)-1H-pyrazole-4-carboxamide], on glucocorticoid receptor, the IC50 was at most 316 nM. For the same molecule, the Emax in the assay with MMTV promoter is above 85%.

Turning to `CCN(CC(O)(CNC(=O)c1cnn(-c2cc(F)cc(F)c2)c1N)C(F)(F)F)C(=O)c1c(F)cccc1F` (racemic) [Example 35 (racemic), 5-amino-1-(3,5-difluorophenyl)-N-(2-{[[(2,6-difluorophenyl)carbonyl](ethyl)amino]methyl}-3,3,3-trifluoro-2-hydroxypropyl)-1H-pyrazole-4-carboxamide], the IC50 on glucocorticoid receptor was at most 316 nM. For the same molecule, the Emax with MMTV promoter was above 85%.

Turning to `CCN(CC(O)(CNC(=O)c1cnn(-c2cc(F)ccc2F)c1N)C(F)(F)F)C(=O)c1c(F)cccc1F` (racemic) [Example 36 (racemic), 5-amino-1-(2,5-difluorophenyl)-N-(2-{[[(2,6-difluorophenyl)carbonyl](ethyl)amino]methyl}-3,3,3-trifluoro-2-hydroxypropyl)-1H-pyrazole-4-carboxamide], the IC50 on glucocorticoid receptor was at most 316 nM. In the assay on MMTV promoter, the Emax was above 85%.

(Values after patent publication US8247377B2, “Non-steroidal glucocorticoid inhibitors and their use in treating inflammation, allergy and auto-immune conditions” (Glaxo Group Limited, priority 2006, dated 2012).)
